Data set [1] can be described thus: Diffusion assay through lung ECM hydrogel. Type of data set: physicochemical. From the text: The difference in IC50 values of the three drugs in this study are attributable to the different cellular mechanism that each drug targets as well as expression of and access to each target. Erlotinib is an inhibitor of epidermal growth factor receptor (EGFR) tyrosine kinase, whereas Etoposide inhibits DNA topoisomerase II, which prevents DNA ligation and ultimately causes DNA strands to break. KPT-185 induces apoptosis as a selective inhibitor of nuclear export (SINE) compound. […] Another important consideration for drug testing in 3D culture systems is drug permeability through the ECM and cell membrane.

For data set [2], the system named is Human lung adenocarcinoma A549 cells. Kind of data set: XTT cell viability / IC50 of anti-cancer drugs, A549 cells in 3D lung tumor model. The conditions noted are these: for IC50: 72 h drug. Type of data set: cell-based. The protocol:
(§1) Cell Expansion. […] Forming 3D Lung Tumor Model. […] Drug Treatment. […] After 72 hours, cell viability was assayed. […] Cell Proliferation Assay. […] Data Analysis.
For orientation: Tetrazolium assays rely on reduction of a dye to a coloured formazan, in cell work by metabolically active cells.

Data set [3] has as its system Human lung adenocarcinoma Jacket cells. Briefly: XTT cell viability / IC50 of anti-cancer drugs, Jacket cells in 3D lung tumor model. The conditions noted are these: for growth inhibition (cell viability): Jacket cells, doses 0.1-10 μM, 3D TissueSpec® Lung ECM Hydrogel and 2D plastic. Type of data set: cell-based. How it is done:
as §1

The subject of data set [4] is MCF-7 and MB-231 breast cancer cells. The following applies: previous studies; cited from earlier work.
The conditions of data set [5]: clinical trials; cited from earlier work.
The test system of data set [6] is breast cancer cells T47-D. Briefly: Viability assay of breast cancer cells embedded in TissueSpec ECM hydrogels. The format is cell-based, human. More on the design: dose or concentration left out as unconfirmed. The following applies: 72 hours, Bone, Liver, Lung ECM Hydrogels, Matrigel, plastic.
Method: Methods. Viability assays were performed on breast cancer cells T47-D embedded in TissueSpec® Bone, Liver, and Lung ECM Hydrogels and treated with Tamoxifen (20 M and 40 M) or vehicle (DMSO) for 72 hours. Matrigel and plastic were used as control substrates.
Where [7] appears, read: Homo sapiens, A549, 72 h, A549 cells in Matrigel®.
Setting [8] is: Homo sapiens, A549, 72 h, A549 cells in TissueSpec® Lung ECM Hydrogel (3D).
Setting [9] is: Homo sapiens, A549, 72 h, A549 cells on Plastic (no ECM), 2D.
Setting [10] is: Homo sapiens, 72 h, Jacket cells in Matrigel®, 72 h drug, read-out: IC50.
Where [11] appears, read: Homo sapiens, 72 h, Jacket cells in TissueSpec® Lung ECM Hydrogel (3D), 72 h drug, read-out: IC50.
Setting [12] is: Homo sapiens, 72 h, Jacket cells on Plastic (no ECM), 2D, 72 h drug, read-out: IC50.
The mark [13] stands for this setting: Jacket cells in TissueSpec® Lung ECM Hydrogel, reproducibility, two rounds, read-out: IC50 in two separate rounds of testing.

“And” between values parts separate entries of the source, which are not always exact repeats. Identical values can stand only once. Like-named read-outs stand apart in the source and are kept apart here. A value given as a limit tells only on which side of the number the result lay.

This is an account of results in patent publication US20240200003A1, “DEVICES AND METHODS FOR IN VITRO MODELING OF METASTATIC CANCER” (XYLYX BIO, INC., priority 2020, published 2024).

Consider `CC1=CC(C)(C)N(C)c2cc3[o+]c4cc5c(cc4c(-c4cc(NC(=O)c6ccc(CCl)cc6)ccc4C(=O)[O-])c3cc21)C(C)=CC(C)(C)N5C.CC1=CC(C)(C)N(C)c2cc3[o+]c4cc5c(cc4c(-c4ccc(NC(=O)c6ccc(CCl)cc6)cc4C(=O)[O-])c3cc21)C(C)=CC(C)(C)N5C` [CellTracker Red CMTPX], for which the “diffusion speed through TissueSpec® Lung ECM Hydrogel” value in data set [1] is reported as at least 1.3 mm/h.

In the case of `C#Cc1cccc(Nc2ncnc3cc(OCCOC)c(OCCOC)cc23)c1` [Erlotinib], the “growth inhibition (cell viability)” value in data set [2] (A549 cells, doses 0.1-10 μM, 3D TissueSpec® Lung ECM Hydrogel and plastic) is on record as “dose-dependent growth inhibition”. The IC50 in data set [2] (setting [7]) turned out to be 57.5 µM; in data set [2] (setting [8]) it was 134 µM; in data set [2] (setting [9]) it was 36.4 µM; in data set [3] (setting [10]), 8.7 µM; in data set [3] (setting [11]), 7.5 µM; in data set [3] (setting [12]), 5.2 µM.

`COc1cc([C@@H]2c3cc4c(cc3[C@@H](O[C@@H]3O[C@@H]5CO[C@@H](C)O[C@H]5[C@H](O)[C@H]3O)[C@H]3COC(=O)[C@H]23)OCO4)cc(OC)c1O` [Etoposide]: the IC50 in data set [2] (setting [7]) worked out at 35.5 µM; in data set [2] (setting [8]) it was 16.6 µM; in data set [2] (setting [9]), 40.3 µM; in data set [3] (setting [10]), 15.8 µM; in data set [3] (setting [11]), 3.7 µM; in data set [3] (setting [12]) it was 4.4 µM. For the same molecule, the IC50 in data set [3] (Homo sapiens, Jacket cells in TissueSpec® Lung ECM Hydrogel, reproducibility, two rounds, read-out: IC50 in two separate rounds of testing) is 3.8 µM; in data set [3] (Jacket cells in Matrigel®, reproducibility, two rounds, read-out: IC50 in two separate rounds of testing), 0.7 µM; in data set [3] (setting [13]), 4 µM. Besides, the “growth inhibition (cell viability)” value in data set [3] is “dose-dependent growth inhibition”.

Take `COc1cc(-c2ncn(/C=C\C(=O)OC(C)C)n2)cc(C(F)(F)F)c1` [KPT-185]: the IC50 in data set [2] (A549 cells in Matrigel®) was found to be 4.2 µM; in data set [2] (A549 cells in TissueSpec® Lung ECM Hydrogel (3D)), 2.3 µM; in data set [2] (A549 cells on Plastic (no ECM), 2D), 8.8 µM; in data set [3] (Jacket cells in Matrigel®, 72 h drug, read-out: IC50), 4.3 µM; in data set [3] (Jacket cells in TissueSpec® Lung ECM Hydrogel (3D), 72 h drug, read-out: IC50), 0.4 µM; in data set [3] (setting [13]) it was 0.4 µM. The IC50 in data set [3] (Jacket cells on Plastic (no ECM), 2D, 72 h drug, read-out: IC50) was determined as 0.2 µM. Besides, the “growth inhibition (cell viability)” value in data set [3] is “dose-dependent growth inhibition”.

For the molecule `COc1cccc2c1C(=O)c1c(O)c3c(c(O)c1C2=O)C[C@@](O)(C(=O)CO)C[C@@H]3O[C@H]1C[C@H](N)[C@H](O)[C@H](C)O1` [doxorubicin], the “resistance when cultured in Matrigel®” value in data set [4] is “more resistant to doxorubicin when cultured in Matrigel®”.

Turning to `CNC(=O)c1cc(Oc2ccc(NC(=O)Nc3ccc(Cl)c(C(F)(F)F)c3)cc2)ccn1` [sorafenib], the “HCC patient plasma concentration” value in data set [5] was 2 mg/L and 4 μM.

As to `CC/C(=C(\c1ccccc1)c1ccc(OCCN(C)C)cc1)c1ccccc1` [tamoxifen, Tamoxifen], the “differential viability response by substrate” value in data set [6] is “cells embedded in lung and bone ECM are more resistant than cells embedded in liver, matrigel or plastic”.

The IC50 is the midpoint of a concentration-inhibition curve.
